# Biological target: T1, human PTH1 receptor (Homo sapiens, UniProt Q03431)
# T1 sequence (Q03431 27-593): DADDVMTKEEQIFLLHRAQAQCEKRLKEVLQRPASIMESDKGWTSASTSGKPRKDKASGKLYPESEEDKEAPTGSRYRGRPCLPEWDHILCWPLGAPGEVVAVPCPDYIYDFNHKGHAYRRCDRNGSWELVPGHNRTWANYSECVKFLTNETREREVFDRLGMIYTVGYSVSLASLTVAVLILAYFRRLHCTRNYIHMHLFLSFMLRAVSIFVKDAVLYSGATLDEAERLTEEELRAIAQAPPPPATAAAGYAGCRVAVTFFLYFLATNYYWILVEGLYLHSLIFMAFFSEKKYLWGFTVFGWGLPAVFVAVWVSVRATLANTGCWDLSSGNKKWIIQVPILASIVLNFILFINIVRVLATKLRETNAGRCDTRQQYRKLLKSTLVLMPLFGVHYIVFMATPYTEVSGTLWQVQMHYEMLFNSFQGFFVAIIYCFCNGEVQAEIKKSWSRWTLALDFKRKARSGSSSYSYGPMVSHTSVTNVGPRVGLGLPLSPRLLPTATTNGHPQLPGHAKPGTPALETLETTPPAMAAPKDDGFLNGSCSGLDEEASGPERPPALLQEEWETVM
# Assay: In vitro cAMP signal activity in HKRK-B7 cells (LLC-PK1 cells overexpressing the human PTH1 receptor)
# Type: cell-based
# Details: HKRK-B7 cells; compound at 1×10^−3 M; cAMP produced as percentage of that produced by hPTH(1-34) at 100 nM
row,cAMP production activity (%),Compound
1,67,"CC(=O)N(CCO)c1ccc(/C=C/S(=O)(=O)N2CCC3(CC2)N=C(c2cccc(C(F)(F)F)c2F)NC3=O)c(C)c1 [Compound 259, N-(4-{(E)-2-[2-(2-Fluoro-3-trifluoromethyl-phenyl)-4-oxo-1,3,8-triaza-spiro[4.5]dec-1-ene-8-sulfonyl]-vinyl}-3-methyl-phenyl)-N-(2-hydroxy-ethyl)-acetamide]"
2,70,"O=C1NC(C2CCCCC2)=NC12CCN(S(=O)(=O)CCc1cccc3[nH]c(=O)oc13)CC2 [Compound 261, 2-Cyclohexyl-8-[2-(2-oxo-2,3-dihydro-benzoxazol-7-yl)-ethanesulfonyl]-1,3,8-triaza-spiro[4.5]dec-1-en-4-one]"
3,26,"O=C1NC(C2CCCCC2)=NC12CCN(S(=O)(=O)CCCCCc1cccc3[nH]ccc13)CC2 [Compound 262, 2-cyclohexyl-8-[5-(1H-indol-4-yl)-pentane-1-sulfonyl]-1,3,8-triaza-spiro[4.5]dec-1-en-4-one]"
4,41,"O=C1NC(C2CCCCC2)=NC12CCN(S(=O)(=O)CCCCc1cccc3[nH]ccc13)CC2 [Compound 263, 2-cyclohexyl-8-[4-(1H-indol-4-yl)-butane-1-sulfonyl]-1,3,8-triaza-spiro[4.5]dec-1-en-4-one]"
5,69,"CC(=O)N(C)c1cccc(CCS(=O)(=O)N2CCC3(CC2)N=C(c2cccc(OC(F)(F)F)c2)NC3=O)c1C [Compound 264, N-methyl-N-(2-methyl-3-{2-[4-oxo-2-(3-trifluoromethoxy-phenyl)-1,3,8-triaza-spiro[4.5]dec-1-ene-8-sulfonyl]-ethyl}-phenyl)-acetamide]"
6,55,"CC(=O)N(C)c1ccc(C)c(CCS(=O)(=O)N2CCC3(CC2)N=C(c2cccc(OC(F)(F)F)c2)NC3=O)c1 [Compound 265, N-methyl-N-(4-methyl-3-{2-[4-oxo-2-(3-trifluoromethoxy-phenyl)-1,3,8-triaza-spiro[4.5]dec-1-ene-8-sulfonyl]-ethyl}-phenyl)-acetamide]"
7,99,"Cc1cc(N2C(=O)CC[C@@H]2CO)ccc1CCS(=O)(=O)N1CCC2(CC1)N=C(c1cccc(C(F)(F)F)c1)NC2=O [Compound 268, 8-{2-[4-((R)-2-Hydroxymethyl-5-oxo-pyrrolidin-1-yl)-2-methyl-phenyl]-ethanesulfonyl}-2-(3-trifluoromethyl-phenyl)-1,3,8-triaza-spiro[4.5]dec-1-en-4-one]"
8,43,"O=C1NC(C2CCCCC2)=NC12CCN(S(=O)(=O)CCc1ccc3[nH]ccc3c1)CC2 [Compound 269, 2-cyclohexyl-8-[2-(1H-indol-5-yl)-ethanesulfonyl]-1,3,8-triaza-spiro[4.5]dec-1-en-4-one]"
9,55,"CN(C)C(=O)CNc1ccc(CCS(=O)(=O)N2CCC3(CC2)N=C(C2CCCCC2)NC3=O)c(C(F)(F)F)c1 [Compound 270, 2-{4-[2-(2-cyclohexyl-4-oxo-1,3,8-triaza-spiro[4.5]dec-1-ene-8-sulfonyl)-ethyl]-3-trifluoromethyl-phenylamino}-N,N-dimethyl-acetamide]"
10,57,"O=C(Nc1ccc(CCS(=O)(=O)N2CCC3(CC2)N=C(C2CCCCC2)NC3=O)c(C(F)(F)F)c1)C1CC1 [Compound 271, cyclopropanecarboxylic acid {4-[2-(2-cyclohexyl-4-oxo-1,3,8-triaza-spiro[4.5]dec-1-ene-8-sulfonyl)-ethyl]-3-trifluoromethyl-phenyl}-amide]"
11,67,"CC(C)(C)OC(=O)NCc1ccc(CCS(=O)(=O)N2CCC3(CC2)N=C(C2CCCCC2)NC3=O)c(C(F)(F)F)c1 [Compound 272, {4-[2-(2-cyclohexyl-4-oxo-1,3,8-triaza-spiro[4.5]dec-1-ene-8-sulfonyl)-ethyl]-3-trifluoromethyl-benzyl}-carbamic acid tert-butyl ester]"
12,55,"CN(C)C(=O)Nc1ccc(CCS(=O)(=O)N2CCC3(CC2)N=C(C2CCCCC2)NC3=O)c(C(F)(F)F)c1 [Compound 273, 3-{4-[2-(2-cyclohexyl-4-oxo-1,3,8-triaza-spiro[4.5]dec-1-ene-8-sulfonyl)-ethyl]-3-trifluoromethyl-phenyl}-1,1-dimethyl-urea]"
13,74,"COC(=O)Nc1ccc(C)c(CCS(=O)(=O)N2CCC3(CC2)N=C(C2CCCCC2)NC3=O)c1 [Compound 274, {3-[2-(2-cyclohexyl-4-oxo-1,3,8-triaza-spiro[4.5]dec-1-ene-8-sulfonyl)-ethyl]-4-methyl-phenyl}-carbamic acid methyl ester]"
14,72,"Cc1ccc(NCCO)cc1CCS(=O)(=O)N1CCC2(CC1)N=C(C1CCCCC1)NC2=O [Compound 275, 2-cyclohexyl-8-{2-[5-(2-hydroxy-ethylamino)-2-methyl-phenyl]-ethanesulfonyl}-1,3,8-triaza-spiro[4.5]dec-1-en-4-one]"
15,63,"CC(=O)Nc1cccc(C)c1CCS(=O)(=O)N1CCC2(CC1)N=C(C1CCCCC1)NC2=O [Compound 276, N-{2-[2-(2-cyclohexyl-4-oxo-1,3,8-triaza-spiro[4.5]dec-1-ene-8-sulfonyl)-ethyl]-3-methyl-phenyl}-acetamide]"
16,38,"Cc1ccccc1CCS(=O)(=O)N1CCC2(CC1)N=C(C1CCCCC1)NC2=O [Compound 277, 2-cyclohexyl-8-(2-o-tolyl-ethanesulfonyl)-1,3,8-triaza-spiro[4.5]dec-1-en-4-one]"
17,59,"O=C(NCCO)Nc1ccc(CCS(=O)(=O)N2CCC3(CC2)N=C(C2CCCCC2)NC3=O)c(C(F)(F)F)c1 [Compound 278, 1-{4-[2-(2-cyclohexyl-4-oxo-1,3,8-triaza-spiro[4.5]dec-1-ene-8-sulfonyl)-ethyl]-3-trifluoromethyl-phenyl}-3-(2-hydroxy-ethyl)-urea]"
18,67,"Cc1cc(OC[C@H](O)CO)cc(C)c1CCS(=O)(=O)N1CCC2(CC1)N=C(C1CCCCC1)NC2=O [Compound 279, 2-cyclohexyl-8-{2-[4-((R)-2,3-dihydroxy-propoxy)-2,6-dimethyl-phenyl]-ethanesulfonyl}-1,3,8-triaza-spiro[4.5]dec-1-en-4-one]"
19,57,"O=C1NC(C2CCCCC2)=NC12CCN(S(=O)(=O)CCc1ccc(CCO)cc1)CC2 [Compound 280, 2-cyclohexyl-8-{2-[4-(2-hydroxy-ethyl)-phenyl]-ethanesulfonyl}-1,3,8-triaza-spiro[4.5]dec-1-en-4-one]"
20,92,"Cc1cc(NCC2CNC(=O)O2)ccc1CCS(=O)(=O)N1CCC2(CC1)N=C(C1CCCCC1)NC2=O (centres unmarked) [Compound 281, 2-cyclohexyl-8-(2-{2-methyl-4-[(2-oxo-oxazolidin-5-ylmethyl)-amino]-phenyl}-ethanesulfonyl)-1,3,8-triaza-spiro[4.5]dec-1-en-4-one]"
21,29,"CN(C)CCNC(=O)Cc1ccc(CCS(=O)(=O)N2CCC3(CC2)N=C(C2CCCCC2)NC3=O)cc1 [Compound 282, 2-{4-[2-(2-cyclohexyl-4-oxo-1,3,8-triaza-spiro[4.5]dec-1-ene-8-sulfonyl)-ethyl]-phenyl}-N-(2-dimethylamino-ethyl)-acetamide]"
22,63,"Cc1cc(C(=O)N2CC(F)(F)C(F)(F)C2)ccc1CCS(=O)(=O)N1CCC2(CC1)N=C(C1CCCCC1)NC2=O [Compound 283, 2-cyclohexyl-8-{2-[2-methyl-4-(3,3,4,4-tetrafluoro-pyrrolidine-1-carbonyl)-phenyl]-ethanesulfonyl}-1,3,8-triaza-spiro[4.5]dec-1-en-4-one]"
23,65,"Cc1cc(C(=O)N2CCC(O)CC2)ccc1CCS(=O)(=O)N1CCC2(CC1)N=C(c1cccc(OC(F)(F)F)c1)NC2=O [Compound 285, 8-{2-[4-(4-hydroxy-piperidine-1-carbonyl)-2-methyl-phenyl]-ethanesulfonyl}-2-(3-trifluoromethoxy-phenyl)-1,3,8-triaza-spiro[4.5]dec-1-en-4-one]"

row,Compound,cAMP production activity (%)
1,"Cc1c(CCS(=O)(=O)N2CCC3(CC2)N=C(c2cccc(OC(F)(F)F)c2)NC3=O)cccc1OCCC(O)CO (centres unmarked) [Compound 266, 8-{2-[3-(3,4-dihydroxy-butoxy)-2-methyl-phenyl]-ethanesulfonyl}-2-(3-trifluoromethoxy-phenyl)-1,3,8-triaza-spiro[4.5]dec-1-en-4-one]",81
2,"Cc1ccc(OCCC(O)CO)cc1CCS(=O)(=O)N1CCC2(CC1)N=C(c1cccc(OC(F)(F)F)c1)NC2=O (centres unmarked) [Compound 267, 8-{2-[5-(3,4-dihydroxy-butoxy)-2-methyl-phenyl]-ethanesulfonyl}-2-(3-trifluoromethoxy-phenyl)-1,3,8-triaza-spiro[4.5]dec-1-en-4-one]",42
3,"Cc1cc(OCCC(O)CO)ccc1CCS(=O)(=O)N1CCC2(CC1)N=C(c1cccc(C(F)(F)F)c1)NC2=O (centres unmarked) [Compound 284, 8-{2-[4-(3,4-dihydroxy-butoxy)-2-methyl-phenyl]-ethanesulfonyl}-2-(3-trifluoromethyl-phenyl)-1,3,8-triaza-spiro[4.5]dec-1-en-4-one]",82

# — US9169254B2, “Spiroimidazolone derivative” (Chugai Seiyaku Kabushiki Kaisha, priority 2009, dated 2015)
